Experimental data published in patent publication US11225505B2, “Antimicrobial polymyxin derivative compounds” (MONASH UNIVERSITY, priority 2015, dated 2022).
≈ marks a conversion by molar mass, not a printed value. Where a SMILES comes first, the peptide text is derived from it. Bridges are numbered along the chain shown (N, C = ends). [ ]: non-standard residue; d: D form. The star is where a group is joined. Propanoyl(3-indol-3-yl) = O=C(CCc1c[nH]c2ccccc12)*; Benzofuran(2-CO) = O=C(c1cc2ccccc2o1)*; X55 = O=C(c1ccc(-c2ccc(Cl)nc2)cc1)*; X19 = O=C(c1ncc(C(F)(F)F)cc1Cl)*; X49 = O=C(c1cnc(C(F)(F)F)nc1)*; X13 = O=C(c1ccnc(Br)c1)*; X59 = Cn1c(Br)ccc1C(=O)*; Dab = NCC[C@H](N)C(=O)O; X3 = O=C(c1cncc(Cl)c1)*; Abu = CC[C@H](N)C(=O)O; Dap = NC[C@H](N)C(=O)O; X53 = O=C(c1ccncc1Cl)*

Key:
Assay type in all cases: cell-based
[1] = system: Acinetobacter baumannii FADDI-AB030; experiment: microbe, parasite or virus in culture; conditions: FADDI-AB030
Outline: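 Lipopeptide TFA salts tested against the multidrug-resistant clinical isolate by CLSI (M100-S24) broth microdilution in cation-adjusted Mueller-Hinton broth, with polymyxin B sulphate as control; MIC read.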

[2] = system: Acinetobacter baumannii ATCC 17978; conditions: ATCC 17978
Outline: (§1)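 In cation-adjusted Mueller-Hinton broth, each lipopeptide (TFA salt) was titrated against the bacteria by microdilution and the minimum inhibitory concentration recorded per CLSI M100-S24; polymyxin B sulphate ran in parallel.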

[3] = system: Enterobacter cloacae FADDI-EC001; conditions: FADDI-EC001
Outline: (§2)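 Susceptibility of polymyxin-susceptible Gram-negative strains, including multidrug-resistant clinical isolates PA022 and AB034, was tested by broth microdilution. Cation-adjusted Mueller-Hinton broth and the CLSI M100-S24 method were used.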

[4] = system: Klebsiella pneumoniae Kp BM1; conditions: Kp BM1
Outline: as §2

[5] = system: Enterobacter cloacae FADDI-EC006; conditions: FADDI-EC006
Outline: as §1

[6] = system: Pseudomonas aeruginosa FADDI-PA022; conditions: FADDI-PA022
Outline: as §1

[7] = system: Klebsiella pneumoniae FADDI-KP032; conditions: FADDI-KP032
Outline: as §1

[8] = system: Acinetobacter baumannii FADDI-AB034; conditions: FADDI-AB034
Outline: as §1

[9] = system: Pseudomonas aeruginosa ATCC 27853; conditions: ATCC 27853
Outline: as §1

[10] = system: Pseudomonas aeruginosa FADDI-PA01; conditions: FADDI-
Outline: as §1

[11] = system: Pseudomonas aeruginosa FADDI-PA038; conditions: FADDI-PA038
Outline: as §1

[12] = system: Enterobacter cloacae FADDI-EC003; conditions: FADDI-EC003
Outline: as §1

[13] = system: Klebsiella pneumoniae FADDI-KP022; conditions: FADDI-KP022
Outline: as §1

SMILES	Minimum inhibitory concentration [1] [µg/mL]	Minimum inhibitory concentration [2] [µg/mL]	Minimum inhibitory concentration [3] [µg/mL]	Minimum inhibitory concentration [4] [µg/mL]	Minimum inhibitory concentration [5] [µg/mL]	Minimum inhibitory concentration [6] [µg/mL]	Minimum inhibitory concentration [7] [µg/mL]	Minimum inhibitory concentration [8] [µg/mL]	Minimum inhibitory concentration [9] [µg/mL]	Minimum inhibitory concentration [10] [µg/mL]	Minimum inhibitory concentration [11] [µg/mL]	Minimum inhibitory concentration [12] [µg/mL]	Minimum inhibitory concentration [13] [µg/mL]
CC(C)C[C@H]1NC(=O)[C@H](CCN)NC(=O)[C@@H](NC(=O)[C@H](CN)NC(=O)[C@@H](NC(=O)[C@H](CCN)NC(=O)c2ccc(-c3ccc(Cl)nc3)cc2)[C@@H](C)O)CCNC(=O)[C@H]([C@@H](C)O)NC(=O)[C@H](CCN)NC(=O)[C@H](CCN)NC(=O)[C@H]([C@@H](C)O)NC1=O [Compound 16] (X55-[Dab]T[Dap][Dab][Dab][dL]T[Dab][Dab]T; lactam 4-C)	8 (≈ 6.56 µM)	2 (≈ 1.64 µM)	0.5 (≈ 0.41 µM)	2 (≈ 1.64 µM)	0.5 (≈ 0.41 µM)	1 (≈ 0.82 µM)	0.25 (≈ 0.205 µM)	4 (≈ 3.28 µM)	0.5 (≈ 0.41 µM)	0.5 (≈ 0.41 µM)	1 (≈ 0.82 µM)	<0.125	<0.125
CC[C@@H]1NC(=O)[C@@H](CC(C)C)NC(=O)[C@H](CCN)NC(=O)[C@@H](NC(=O)[C@H](CN)NC(=O)[C@@H](NC(=O)[C@H](CCN)NC(=O)c2ccc(Br)n2C)[C@@H](C)O)CCNC(=O)[C@H]([C@@H](C)O)NC(=O)[C@H](CCN)NC(=O)[C@H](CCN)NC1=O [Compound 93] (X59-[Dab]T[Dap][Dab][Dab][dL][Abu][Dab][Dab]T; lactam 4-C; N-terminus assumed)	0.5 (≈ 0.426 µM)	2 (≈ 1.7 µM)	<0.125	0.25 (≈ 0.213 µM)	0.25 (≈ 0.213 µM)	0.5 (≈ 0.426 µM)	0.5 (≈ 0.426 µM)	1 (≈ 0.852 µM)	0.5 (≈ 0.426 µM)	0.5 (≈ 0.426 µM)	1 (≈ 0.852 µM)	0.5 (≈ 0.426 µM)	<0.125
CC[C@@H]1NC(=O)[C@@H](CC(C)C)NC(=O)[C@H](CCN)NC(=O)[C@@H](NC(=O)[C@H](CN)NC(=O)[C@@H](NC(=O)[C@H](CCN)NC(=O)c2cnc(C(F)(F)F)nc2)[C@@H](C)O)CCNC(=O)[C@H]([C@@H](C)O)NC(=O)[C@H](CCN)NC(=O)[C@H](CCN)NC1=O [Compound 45] (X49-[Dab]T[Dap][Dab][Dab][dL][Abu][Dab][Dab]T; lactam 4-C)	0.5 (≈ 0.431 µM)	2 (≈ 1.72 µM)	<0.125	0.5 (≈ 0.431 µM)	2 (≈ 1.72 µM)	0.25 (≈ 0.215 µM)	0.5 (≈ 0.431 µM)	0.5 (≈ 0.431 µM)	0.25 (≈ 0.215 µM)	<0.125	1 (≈ 0.861 µM)	2 (≈ 1.72 µM)	<0.125
CC[C@@H]1NC(=O)[C@@H](CC(C)C)NC(=O)[C@H](CCN)NC(=O)[C@@H](NC(=O)[C@H](CN)NC(=O)[C@@H](NC(=O)[C@H](CCN)NC(=O)c2cncc(Cl)c2)[C@@H](C)O)CCNC(=O)[C@H]([C@@H](C)O)NC(=O)[C@H](CCN)NC(=O)[C@H](CCN)NC1=O [Compound 6] (X3-[Dab]T[Dap][Dab][Dab][dL][Abu][Dab][Dab]T; lactam 4-C)	1 (≈ 0.888 µM)	2 (≈ 1.78 µM)	0.25 (≈ 0.222 µM)	0.5 (≈ 0.444 µM)	0.25 (≈ 0.222 µM)	1 (≈ 0.888 µM)	0.25 (≈ 0.222 µM)	2 (≈ 1.78 µM)	1 (≈ 0.888 µM)	0.5 (≈ 0.444 µM)	0.5 (≈ 0.444 µM)	<0.125	<0.125
CC[C@@H]1NC(=O)[C@@H](CC(C)C)NC(=O)[C@H](CCN)NC(=O)[C@@H](NC(=O)[C@H](CN)NC(=O)[C@@H](NC(=O)[C@H](CCN)NC(=O)c2ccncc2Cl)[C@@H](C)O)CCNC(=O)[C@H]([C@@H](C)O)NC(=O)[C@H](CCN)NC(=O)[C@H](CCN)NC1=O [Compound 34] (X53-[Dab]T[Dap][Dab][Dab][dL][Abu][Dab][Dab]T; lactam 4-C)	8 (≈ 7.1 µM)	8 (≈ 7.1 µM)	0.25 (≈ 0.222 µM)	1 (≈ 0.888 µM)	2 (≈ 1.78 µM)	0.25 (≈ 0.222 µM)	1 (≈ 0.888 µM)	8 (≈ 7.1 µM)	0.25 (≈ 0.222 µM)	0.25 (≈ 0.222 µM)	1 (≈ 0.888 µM)	0.5 (≈ 0.444 µM)	<0.125
CC[C@@H]1NC(=O)[C@@H](CC(C)C)NC(=O)[C@H](CCN)NC(=O)[C@@H](NC(=O)[C@H](CN)NC(=O)[C@@H](NC(=O)[C@H](CCN)NC(=O)CCc2c[nH]c3ccccc23)[C@@H](C)O)CCNC(=O)[C@H]([C@@H](C)O)NC(=O)[C@H](CCN)NC(=O)[C@H](CCN)NC1=O [Compound 104] ({Propanoyl(3-indol-3-yl)}-[Dab]T[Dap][Dab][Dab][dL][Abu][Dab][Dab]T; lactam 4-C)	0.5 (≈ 0.432 µM)	0.5 (≈ 0.432 µM)	<0.125	<0.125	0.25 (≈ 0.216 µM)	0.25 (≈ 0.216 µM)	<0.125	0.5 (≈ 0.432 µM)	0.25 (≈ 0.216 µM)	<0.125	0.5 (≈ 0.432 µM)	<0.125	<0.125
CC[C@@H]1NC(=O)[C@@H](CC(C)C)NC(=O)[C@H](CCN)NC(=O)[C@@H](NC(=O)[C@H](CN)NC(=O)[C@@H](NC(=O)[C@H](CCN)NC(=O)c2ncc(C(F)(F)F)cc2Cl)[C@@H](C)O)CCNC(=O)[C@H]([C@@H](C)O)NC(=O)[C@H](CCN)NC(=O)[C@H](CCN)NC1=O [Compound 35] (X19-[Dab]T[Dap][Dab][Dab][dL][Abu][Dab][Dab]T; lactam 4-C)	<0.125	0.25 (≈ 0.209 µM)	<0.125	<0.125	<0.125	0.5 (≈ 0.419 µM)	<0.125	0.25 (≈ 0.209 µM)	0.25 (≈ 0.209 µM)	0.25 (≈ 0.209 µM)	0.5 (≈ 0.419 µM)	<0.125	<0.125
CC[C@@H]1NC(=O)[C@@H](CC(C)C)NC(=O)[C@H](CCN)NC(=O)[C@@H](NC(=O)[C@H](CN)NC(=O)[C@@H](NC(=O)[C@H](CCN)NC(=O)c2cc3ccccc3o2)[C@@H](C)O)CCNC(=O)[C@H]([C@@H](C)O)NC(=O)[C@H](CCN)NC(=O)[C@H](CCN)NC1=O [Compound 92] ({Benzofuran(2-CO)}-[Dab]T[Dap][Dab][Dab][dL][Abu][Dab][Dab]T; lactam 4-C)	0.5 (≈ 0.442 µM)	1 (≈ 0.884 µM)	<0.125	0.5 (≈ 0.442 µM)	<0.125	0.5 (≈ 0.442 µM)	0.5 (≈ 0.442 µM)	0.5 (≈ 0.442 µM)	0.5 (≈ 0.442 µM)	0.5 (≈ 0.442 µM)	0.5 (≈ 0.442 µM)	0.25 (≈ 0.221 µM)	<0.125
CC[C@@H]1NC(=O)[C@@H](CC(C)C)NC(=O)[C@H](CCN)NC(=O)[C@@H](NC(=O)[C@H](CN)NC(=O)[C@@H](NC(=O)[C@H](CCN)NC(=O)c2ccnc(Br)c2)[C@@H](C)O)CCNC(=O)[C@H]([C@@H](C)O)NC(=O)[C@H](CCN)NC(=O)[C@H](CCN)NC1=O [Compound 25] (X13-[Dab]T[Dap][Dab][Dab][dL][Abu][Dab][Dab]T; lactam 4-C)	1 (≈ 0.854 µM)	1 (≈ 0.854 µM)	0.5 (≈ 0.427 µM)	0.25 (≈ 0.213 µM)	2 (≈ 1.71 µM)	0.25 (≈ 0.213 µM)	0.25 (≈ 0.213 µM)	1 (≈ 0.854 µM)	0.25 (≈ 0.213 µM)	0.25 (≈ 0.213 µM)	1 (≈ 0.854 µM)	<0.125	<0.125
